Structures can show the parent of a compound that is named as a salt.
Experiment: Solubility of sertraline salt forms
Conditions: medium not given; aqueous solubility

Compound | Solubility [µg/mL]
CN[C@H]1CC[C@@H](c2ccc(Cl)c(Cl)c2)c2ccccc21 [Sertraline lactate Form A, sertraline lactate] | 1900
sertraline mesylate [Sertraline mesylate Form C] | 4200
sertraline besylate [Sertraline besylate salt] | 300
CN[C@H]1CC[C@@H](c2ccc(Cl)c(Cl)c2)c2ccccc21 [sertraline HBr salt, sertraline HBr] | 600

Source: patent US7186863B2, “Sertraline compositions” (TransForm Pharmaceuticals, Inc., priority 2003, dated 2007)
